In brackets after ≈: the same amount, converted by molar mass.
Test system: HIV-1NL4-3-GFP-P2A-Nef
Assay: ART and LASER ART drug cocktails at 5×EC90 in HIV-1 infected Jurkat T cell line
Type: cell-based
Settings: for 5×EC90 values: concentration used in the cocktail, equal to 5×EC90; for EC90: Human immunodeficiency virus 1, Jurkat, read-out: 5×EC90 values
Method: FIGS. 6A-6C show the combined effect of ART and CRISPR/Cas9 on HIV-1 infection of Jurkat T cell line. FIG. 6A: Experimental design and procedure. Jurkat cells were infected with HIV-1NL4-3-GFP-P2A-Nef at multiplicity of infection (MOI) 0.001 and 0.01. […] At day 6 of infection the drugs were removed to allow efficient lentiviral transduction of Cas9 and gRNAs LTR A and LTR B which was conducted at day 7. At day 8 antiretrovirals were added back and continued for another 4 days. Twelve days after HIV-1 infection cells were collected, genomic DNA was extracted and analyzed by PCR for CRISPR-Cas9 mediated cleavage of viral LTR sequences. FIG. 6B: Quantification of the level of infection at day 7. Cells were fixed with 2% PFA and FACS analysis was performed to measure GFP expressing population for HIV infection/replication in vitro. FIG. 6C: Similar to FIG. 6B with exception that cells were treated with modified ART.
In vitro Infection: HEK-293T cells were transfected using CaPO4 precipitation method in the presence of chloroquine (50 μM) with 30 μg of pNL4-3-EGFP-P2A-Nef plasmid (13)/2.5×10^6 cells/100 mm dish. Next day, medium was replaced; and 24 h and 48 h later supernatants were collected, clarified at 3000 RPM for 10 minutes, filtered through 0.45 um filter, and concentrated by ultracentrifugation for 2 h with 20% sucrose cushion (25). Viral pellets were resuspended in HBSS by gentle agitation overnight, aliquoted, and tittered in Jurkat cells by FACS for GFP expression. Jurkat cells were infected by spinoculation for 1.5 h (26), 32° C. in 500 μl inoculum containing 8 μg/ml polybrene then resuspended and left for 4 h then 500 μl of growth medium was added. Next day, cells were washed 3 times with PBS and re-suspended in growth medium.

SMILES	5×EC90 values [µg/mL]	EC90 [µg/mL]
CCCCCCCCCCCCCC(=O)OCC1C=CC(n2cnc3c(NC4CC4)nc(N)nc32)C1 (stereo not shown) [MABC, myristoylated abacavir]	14.4	–
Cc1cc(/C=C/C#N)cc(C)c1Nc1ccnc(Nc2ccc(C#N)cc2)n1 [RPV, rilpivirine]	–	0.0033 (≈ 0.00901 µM)
Nc1ccn([C@@H]2CS[C@H](CO)O2)c(=O)n1 [3TC, lamivudine]	–	17.2 (≈ 75 µM)
CCCCCCCCCCCCCC(=O)Oc1c2n(cc(C(=O)NCc3ccc(F)cc3F)c1=O)C[C@@H]1OCC[C@@H](C)N1C2=O [MDTG, myristoylated dolutegravir]	0.0167	–
C[C@@H]1CCO[C@H]2Cn3cc(C(=O)NCc4ccc(F)cc4F)c(=O)c(O)c3C(=O)N12 [DTG, dolutegravir]	–	0.0111 (≈ 0.0265 µM)
CCCCCCCCCCCCCC(=O)OCC1OC(n2ccc(N)nc2=O)CS1 (stereo not shown) [M3TC, myristoylated lamivudine]	32.9	–
Nc1nc(NC2CC2)c2ncn([C@H]3C=C[C@@H](CO)C3)c2n1 [ABC, abacavir]	–	8.3 (≈ 29 µM)
